# According to US20040044075A1, “Alpha acyloxyacetamides for kallikrein and urokinase inhibition” (Genzyme Corporation, priority 2002, published 2004):
# Molecular target: Kallikrein (Homo sapiens, UniProt P03952)
# Experiment: Kallikrein inhibition assay (fluorometric, H-Pro-Phe-Arg-AMC substrate)
# Type: biochemical
# Settings: 24° C, HEPES pH 7.5, 5% DMSO, fluorescence after ten minutes
# Procedure: Kallikrein activity was assayed fluorometrically with an aminomethyl coumarin-containing (AMC-containing) substrate according to procedures described in Zimmerman et al., Proc. Natl. Acad. Sci. USA 75:750 (1978), the entire teachings of which are incorporated herein by reference. Specifically, enzyme assays with varying concentrations of the fluorogenic substrate H-Pro-Phe-Arg-AMC were conducted at 24° C in 0.05 M 4-(2-hydroxyethyl)-piperazineethanesulfonic acid (HEPES) buffer, pH 7.5/5% (vol/vol) dimethyl sulfoxide. The final volume was 0.1 ml in each assay. Fluorescence was read after ten minutes at 360 nm (activation wavelength) and 460 nm (emission wavelength).
# Chain of Kallikrein (P03952 whole entry): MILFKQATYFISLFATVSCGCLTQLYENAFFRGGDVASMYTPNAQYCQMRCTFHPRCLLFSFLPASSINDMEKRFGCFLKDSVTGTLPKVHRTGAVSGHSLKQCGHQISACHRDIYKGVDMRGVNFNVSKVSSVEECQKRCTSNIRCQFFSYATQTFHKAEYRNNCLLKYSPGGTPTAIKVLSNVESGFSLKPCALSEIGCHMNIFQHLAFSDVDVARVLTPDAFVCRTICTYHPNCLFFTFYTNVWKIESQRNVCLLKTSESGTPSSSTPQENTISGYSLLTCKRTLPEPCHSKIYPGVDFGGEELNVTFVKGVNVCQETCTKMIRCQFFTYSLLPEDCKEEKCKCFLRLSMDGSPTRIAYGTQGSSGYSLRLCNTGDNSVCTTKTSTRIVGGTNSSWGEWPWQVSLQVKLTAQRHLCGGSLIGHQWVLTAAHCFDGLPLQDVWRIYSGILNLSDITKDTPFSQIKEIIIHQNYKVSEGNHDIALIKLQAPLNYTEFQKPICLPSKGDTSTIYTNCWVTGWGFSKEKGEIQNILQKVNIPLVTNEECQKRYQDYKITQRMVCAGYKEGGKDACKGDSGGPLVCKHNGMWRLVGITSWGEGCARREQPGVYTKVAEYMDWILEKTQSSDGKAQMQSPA
row,SMILES,IC50
1,N#Cc1ccc(C(OC(=O)Cc2c[nH]c3ccc(Br)cc23)C(=O)NC2CC2)cc1 (stereo not shown) [Compound (2)],0.167 µM
2,N#Cc1ccc(C(OC(=O)CCC2CCCCC2)C(=O)NC2CC2)cc1 (stereo not shown) [Compound (3)],1.06 µM
3,COc1cc(CNC(=O)C(OC(=O)CCC(=O)c2ccccc2)c2ccccc2)cc(OC)c1OC (stereo not shown) [Compound (12)],0.737 µM
4,COc1cc(CNC(=O)C(OC(=O)CCC(=O)c2ccccc2)c2ccc(S(C)(=O)=O)cc2)cc(OC)c1OC (stereo not shown) [Compound (14)],1.18 µM
5,COc1cc(CNC(=O)C(OC(=O)CSc2nc(C)cc(C)n2)c2cccc(C#N)c2)cc(OC)c1OC (stereo not shown) [Compound (18)],6.47 µM
6,COc1ccc(NC(=O)C(OC(=O)CCOc2ccccc2)c2ccc(Br)cc2)cc1 (stereo not shown) [Compound (30)],0.714 µM
7,COc1ccc(CCNC(=O)C(OC(=O)CSc2ncccn2)c2ccc(C#N)cc2)cc1 (stereo not shown) [Compound (31)],0.543 µM
8,O=C(CCOc1ccccc1)OC(C(=O)Nc1ccc2ncccc2c1)c1ccc(Br)cc1 (stereo not shown) [Compound (32)],1.34 µM
9,NC(=O)c1ccc(NC(=O)C(OC(=O)CCOc2ccccc2)c2ccc(Br)cc2)cc1 (stereo not shown) [Compound (33)],0.459 µM
10,COc1ccc(CC(=O)OC(C(=O)NC2CC2)c2ccc(C#N)cc2)cc1 (stereo not shown) [Compound (35)],0.391 µM
11,COc1cc(CNC(=O)C(OC(=O)c2csc3cc4c(cc23)OC(C)(C)O4)c2ccc(Br)cc2)cc(OC)c1OC (stereo not shown) [Compound (36)],3.67 µM
12,N#Cc1ccc(C(OC(=O)Cc2c[nH]c3ccccc23)C(=O)NC2CC2)cc1 (stereo not shown) [Compound (38)],3.77 µM
13,COc1cc(CNC(=O)C(OC(=O)Cc2c[nH]c3ccc(Br)cc23)c2ccc(Br)cc2)cc(OC)c1OC (stereo not shown) [Compound (39)],2.68 µM

# Next, values leading:
row,IC50,SMILES
1,0.174 µM,COc1ccc(OC)c(C(=O)CCC(=O)OC(C(=O)NC2CC2)c2ccc(Br)cc2)c1 (stereo not shown) [Compound (1)]
2,0.442 µM,COC(=O)c1ccc(C(OC(=O)CCC(=O)c2ccccc2)C(=O)NCc2cc(OC)c(OC)c(OC)c2)cc1 (stereo not shown) [Compound (11)]
3,0.874 µM,COc1cc(CNC(=O)C(OC(=O)CCC(=O)c2ccccc2)c2ccc(SC)cc2)cc(OC)c1OC (stereo not shown) [Compound (13)]
4,0.577 µM,COc1cc(CNC(=O)C(OC(=O)CCOc2ccccc2)c2cccc(C#N)c2)cc(OC)c1OC (stereo not shown) [Compound (15)]
5,0.253 µM,COc1ccc(OC)c(C(=O)CCC(=O)OC(C(=O)Nc2ccc(OC)c(OC)c2)c2cccc(C#N)c2)c1 (stereo not shown) [Compound (16)]
6,0.384 µM,COc1cc(CNC(=O)C(OC(=O)CSc2nccc(C)n2)c2cccc(C#N)c2)cc(OC)c1OC (stereo not shown) [Compound (17)]
7,1.69 µM,COc1cccc(OCCC(=O)OC(C(=O)NCc2cc(OC)c(OC)c(OC)c2)c2cccc(C#N)c2)c1 (stereo not shown) [Compound (19)]
8,1.48 µM,COc1cc(CNC(=O)C(OC(=O)CSc2ncccn2)c2cccc(C#N)c2)cc(OC)c1OC (stereo not shown) [Compound (20)]
9,1.18 µM,COc1cc(CNC(=O)C(OC(=O)CCCc2ccccc2)c2cccc(C#N)c2)cc(OC)c1OC (stereo not shown) [Compound (21)]
10,0.428 µM,COc1ccc(CC(=O)OC(C(=O)Nc2ccc(OC)c(OC)c2)c2ccc(C#N)cc2)cc1 (stereo not shown) [Compound (22)]
11,0.576 µM,COc1ccc(CC(=O)OC(C(=O)NCc2cc(OC)c(OC)c(OC)c2)c2ccc(C#N)cc2)cc1 (stereo not shown) [Compound (23)]
12,0.275 µM,COc1ccc(OC)c(C(=O)CCC(=O)OC(C(=O)Nc2ccc(OC)c(OC)c2)c2ccc(Br)cc2)c1 (stereo not shown) [Compound (25)]
13,0.68 µM,COc1ccc(CC(=O)OC(C(=O)Nc2ccc(OC)c(OC)c2)c2ccc(Br)cc2)cc1 (stereo not shown) [Compound (28)]
14,0.731 µM,COc1ccc(OC)c(C(=O)CCC(=O)OC(C(=O)NCc2cc(OC)c(OC)c(OC)c2)c2ccc(C(F)(F)F)cc2)c1 (stereo not shown) [Compound (34)]
15,1.67 µM,COc1ccc(OC)c(C(=O)CCC(=O)OC(C(=O)NCc2cc(OC)c(OC)c(OC)c2)c2ccccc2)c1 (stereo not shown) [Compound (37)]
